ChEMBL document CHEMBL5465560, “Selectivity Literature for EUbOPEN Chemogenomic Library” (2024)
Blank lines part the entries; values can stand above or below the compound they belong to.

What was measured:
[1] = target: Non-receptor tyrosine-protein kinase TYK2 (Homo sapiens, UniProt P29597); assay: Selectivity interaction (KinomeScan (DiscoverX)) EUB0001868a TYK2; conditions: at 1 µM
[2] = target: T1, Serine/threonine-protein kinase Nek1 (Homo sapiens) (UniProt Q96PY6); assay: Selectivity interaction (KinomeScan (DiscoverX)) EUB0000607a NEK1; conditions: at 10 µM
T1 sequence (whole entry): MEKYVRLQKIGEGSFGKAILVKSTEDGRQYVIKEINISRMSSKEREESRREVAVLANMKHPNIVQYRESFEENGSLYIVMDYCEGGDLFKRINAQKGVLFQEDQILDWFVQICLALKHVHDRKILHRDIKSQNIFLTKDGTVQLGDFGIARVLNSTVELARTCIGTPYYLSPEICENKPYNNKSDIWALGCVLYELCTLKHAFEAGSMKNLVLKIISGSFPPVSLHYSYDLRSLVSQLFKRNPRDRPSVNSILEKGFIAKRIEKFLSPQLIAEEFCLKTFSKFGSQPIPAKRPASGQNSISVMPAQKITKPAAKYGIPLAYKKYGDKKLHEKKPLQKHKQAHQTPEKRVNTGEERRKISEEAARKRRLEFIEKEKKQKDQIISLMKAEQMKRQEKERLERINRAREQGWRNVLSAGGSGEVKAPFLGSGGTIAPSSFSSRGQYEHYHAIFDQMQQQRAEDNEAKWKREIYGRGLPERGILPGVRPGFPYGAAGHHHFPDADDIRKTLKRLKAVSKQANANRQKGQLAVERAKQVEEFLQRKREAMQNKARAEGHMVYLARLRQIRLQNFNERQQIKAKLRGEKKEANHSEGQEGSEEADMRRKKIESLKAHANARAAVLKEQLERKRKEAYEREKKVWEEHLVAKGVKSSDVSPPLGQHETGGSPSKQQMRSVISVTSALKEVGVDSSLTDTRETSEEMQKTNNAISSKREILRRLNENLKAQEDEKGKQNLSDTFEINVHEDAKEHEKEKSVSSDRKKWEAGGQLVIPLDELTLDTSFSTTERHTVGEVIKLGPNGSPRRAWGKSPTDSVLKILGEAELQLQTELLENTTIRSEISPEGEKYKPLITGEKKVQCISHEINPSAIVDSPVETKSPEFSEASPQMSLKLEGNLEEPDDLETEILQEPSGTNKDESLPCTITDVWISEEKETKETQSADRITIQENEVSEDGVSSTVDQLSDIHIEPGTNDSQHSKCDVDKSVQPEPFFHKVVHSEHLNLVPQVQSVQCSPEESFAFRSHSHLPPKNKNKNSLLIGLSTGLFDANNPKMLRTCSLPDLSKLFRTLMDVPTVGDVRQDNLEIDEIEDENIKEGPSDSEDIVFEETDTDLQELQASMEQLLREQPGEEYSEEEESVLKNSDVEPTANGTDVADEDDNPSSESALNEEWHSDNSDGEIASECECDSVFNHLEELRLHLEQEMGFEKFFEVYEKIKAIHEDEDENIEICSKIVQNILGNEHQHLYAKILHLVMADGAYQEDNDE

[3] = target: RAC-alpha serine/threonine-protein kinase (Homo sapiens, UniProt P31749); conditions: at 10 µM
[4] = target: Fibroblast growth factor receptor 1 (Homo sapiens, UniProt P11362); conditions: at 10 µM
[5] = target: Histone-lysine N-methyltransferase 2A (Homo sapiens) (UniProt Q03164); assay: Selectivity interaction (Methyltransferase screen (Scintillation proximity assays)) EUB0000255b MLL
[6] = target: T2, Dual specificity mitogen-activated protein kinase kinase 4 (Homo sapiens) (UniProt P45985); assay: Selectivity interaction (ProQinase) EUB0000171b MAP2K4
T2 sequence (whole entry): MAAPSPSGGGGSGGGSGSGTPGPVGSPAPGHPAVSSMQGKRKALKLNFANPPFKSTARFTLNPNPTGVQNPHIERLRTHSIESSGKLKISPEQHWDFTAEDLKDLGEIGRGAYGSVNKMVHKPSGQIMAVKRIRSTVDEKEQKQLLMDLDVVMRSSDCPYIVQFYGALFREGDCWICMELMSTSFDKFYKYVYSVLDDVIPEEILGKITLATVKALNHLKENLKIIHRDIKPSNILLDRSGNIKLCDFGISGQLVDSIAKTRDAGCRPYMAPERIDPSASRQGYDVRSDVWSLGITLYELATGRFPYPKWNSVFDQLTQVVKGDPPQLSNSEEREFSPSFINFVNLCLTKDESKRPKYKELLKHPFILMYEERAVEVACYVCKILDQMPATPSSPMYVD

[7] = target: Mitogen-activated protein kinase kinase kinase kinase 4 (Homo sapiens, UniProt O95819); assay: Selectivity interaction (KinomeScan (DiscoverX)) EUB0000595a MAP4K4; conditions: at 10 µM
[8] = target: Cyclin-dependent kinase 5 (Homo sapiens, UniProt Q00535); assay: Selectivity interaction (Kinase panel (enzymatic assay)) EUB0000595a CDK5
[9] = target: Ribosomal protein S6 kinase alpha-1 (Homo sapiens, UniProt Q15418); assay: Selectivity interaction (KinomeScan (DiscoverX)) EUB0001049a RPS6KA1; conditions: at 1 µM
Activated CDC42 kinase 1 = Activated CDC42 kinase 1 (Homo sapiens, UniProt Q07912); conditions: at 10 µM

Chain of Histone-lysine N-methyltransferase 2A (Homo sapiens) (Q03164 1-2718 limits assumed): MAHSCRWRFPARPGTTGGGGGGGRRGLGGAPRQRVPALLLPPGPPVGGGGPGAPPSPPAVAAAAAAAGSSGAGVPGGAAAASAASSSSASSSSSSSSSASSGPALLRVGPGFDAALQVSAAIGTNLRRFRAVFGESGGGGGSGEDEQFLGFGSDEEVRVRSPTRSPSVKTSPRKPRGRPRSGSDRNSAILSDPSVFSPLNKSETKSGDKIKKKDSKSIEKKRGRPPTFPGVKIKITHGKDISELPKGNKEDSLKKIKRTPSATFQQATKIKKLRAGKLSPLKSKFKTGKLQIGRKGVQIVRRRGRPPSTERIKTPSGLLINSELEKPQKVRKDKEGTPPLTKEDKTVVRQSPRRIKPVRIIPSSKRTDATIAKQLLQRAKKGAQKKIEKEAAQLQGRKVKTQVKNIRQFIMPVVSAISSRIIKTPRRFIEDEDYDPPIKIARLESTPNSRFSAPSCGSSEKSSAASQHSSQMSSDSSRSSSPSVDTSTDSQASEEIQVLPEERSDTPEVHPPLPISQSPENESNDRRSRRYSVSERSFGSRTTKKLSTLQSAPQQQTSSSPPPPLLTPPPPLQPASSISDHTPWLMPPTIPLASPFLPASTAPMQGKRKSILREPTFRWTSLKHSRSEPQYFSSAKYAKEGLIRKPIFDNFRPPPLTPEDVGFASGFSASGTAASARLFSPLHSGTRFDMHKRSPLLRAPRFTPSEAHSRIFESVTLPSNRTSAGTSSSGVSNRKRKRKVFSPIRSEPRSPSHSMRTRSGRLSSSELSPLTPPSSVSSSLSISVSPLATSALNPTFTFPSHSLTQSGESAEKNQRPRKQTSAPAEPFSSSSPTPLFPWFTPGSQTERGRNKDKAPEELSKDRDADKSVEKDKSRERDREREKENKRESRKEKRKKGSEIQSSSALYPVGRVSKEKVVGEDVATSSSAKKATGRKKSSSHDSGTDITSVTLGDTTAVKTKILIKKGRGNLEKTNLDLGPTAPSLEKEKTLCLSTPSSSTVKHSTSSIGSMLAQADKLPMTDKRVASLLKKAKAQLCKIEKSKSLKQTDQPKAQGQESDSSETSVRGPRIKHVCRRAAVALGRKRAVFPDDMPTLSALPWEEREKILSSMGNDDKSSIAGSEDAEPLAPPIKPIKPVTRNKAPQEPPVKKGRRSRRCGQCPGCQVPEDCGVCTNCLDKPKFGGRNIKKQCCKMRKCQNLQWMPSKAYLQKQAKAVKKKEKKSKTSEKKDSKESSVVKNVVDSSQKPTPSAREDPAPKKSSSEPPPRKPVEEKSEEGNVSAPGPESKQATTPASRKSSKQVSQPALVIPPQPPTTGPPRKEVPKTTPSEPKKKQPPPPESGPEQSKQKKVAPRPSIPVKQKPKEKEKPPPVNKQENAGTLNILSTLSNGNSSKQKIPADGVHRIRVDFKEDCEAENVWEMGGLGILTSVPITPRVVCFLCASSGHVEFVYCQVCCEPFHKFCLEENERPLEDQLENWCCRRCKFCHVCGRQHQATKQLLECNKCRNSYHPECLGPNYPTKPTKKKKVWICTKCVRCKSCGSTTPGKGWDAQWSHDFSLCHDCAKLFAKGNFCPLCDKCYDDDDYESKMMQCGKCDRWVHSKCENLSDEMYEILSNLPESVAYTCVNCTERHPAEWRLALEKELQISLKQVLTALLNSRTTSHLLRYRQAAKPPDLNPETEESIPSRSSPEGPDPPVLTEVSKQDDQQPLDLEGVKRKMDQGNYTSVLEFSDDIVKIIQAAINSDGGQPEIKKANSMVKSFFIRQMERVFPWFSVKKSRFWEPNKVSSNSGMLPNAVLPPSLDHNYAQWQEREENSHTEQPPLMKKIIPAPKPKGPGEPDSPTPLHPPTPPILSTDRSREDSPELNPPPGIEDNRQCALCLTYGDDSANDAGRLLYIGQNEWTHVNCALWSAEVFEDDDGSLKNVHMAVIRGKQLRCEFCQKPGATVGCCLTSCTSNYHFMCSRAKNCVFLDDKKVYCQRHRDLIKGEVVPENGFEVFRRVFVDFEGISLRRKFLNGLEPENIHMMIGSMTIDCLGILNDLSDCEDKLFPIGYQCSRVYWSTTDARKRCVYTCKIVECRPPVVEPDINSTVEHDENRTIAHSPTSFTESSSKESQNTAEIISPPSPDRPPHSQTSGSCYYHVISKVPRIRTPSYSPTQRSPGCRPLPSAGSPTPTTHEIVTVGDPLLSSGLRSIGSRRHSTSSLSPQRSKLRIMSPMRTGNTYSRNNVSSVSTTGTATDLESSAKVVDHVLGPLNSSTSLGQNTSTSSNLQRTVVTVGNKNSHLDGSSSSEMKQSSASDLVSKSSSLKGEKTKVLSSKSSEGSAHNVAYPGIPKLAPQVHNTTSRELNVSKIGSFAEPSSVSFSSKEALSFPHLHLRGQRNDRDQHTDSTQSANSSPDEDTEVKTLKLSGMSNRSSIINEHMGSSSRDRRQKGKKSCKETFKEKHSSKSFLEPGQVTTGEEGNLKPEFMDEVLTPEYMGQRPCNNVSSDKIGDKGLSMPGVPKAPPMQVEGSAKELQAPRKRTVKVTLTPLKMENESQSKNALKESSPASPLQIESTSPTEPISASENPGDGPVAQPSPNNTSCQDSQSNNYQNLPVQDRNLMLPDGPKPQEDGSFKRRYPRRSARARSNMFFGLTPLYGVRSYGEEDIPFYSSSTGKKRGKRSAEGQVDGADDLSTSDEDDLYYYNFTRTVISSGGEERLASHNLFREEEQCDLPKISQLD
Chain of Histone-lysine N-methyltransferase 2A (Homo sapiens) (Q03164 2719-3969 limits assumed): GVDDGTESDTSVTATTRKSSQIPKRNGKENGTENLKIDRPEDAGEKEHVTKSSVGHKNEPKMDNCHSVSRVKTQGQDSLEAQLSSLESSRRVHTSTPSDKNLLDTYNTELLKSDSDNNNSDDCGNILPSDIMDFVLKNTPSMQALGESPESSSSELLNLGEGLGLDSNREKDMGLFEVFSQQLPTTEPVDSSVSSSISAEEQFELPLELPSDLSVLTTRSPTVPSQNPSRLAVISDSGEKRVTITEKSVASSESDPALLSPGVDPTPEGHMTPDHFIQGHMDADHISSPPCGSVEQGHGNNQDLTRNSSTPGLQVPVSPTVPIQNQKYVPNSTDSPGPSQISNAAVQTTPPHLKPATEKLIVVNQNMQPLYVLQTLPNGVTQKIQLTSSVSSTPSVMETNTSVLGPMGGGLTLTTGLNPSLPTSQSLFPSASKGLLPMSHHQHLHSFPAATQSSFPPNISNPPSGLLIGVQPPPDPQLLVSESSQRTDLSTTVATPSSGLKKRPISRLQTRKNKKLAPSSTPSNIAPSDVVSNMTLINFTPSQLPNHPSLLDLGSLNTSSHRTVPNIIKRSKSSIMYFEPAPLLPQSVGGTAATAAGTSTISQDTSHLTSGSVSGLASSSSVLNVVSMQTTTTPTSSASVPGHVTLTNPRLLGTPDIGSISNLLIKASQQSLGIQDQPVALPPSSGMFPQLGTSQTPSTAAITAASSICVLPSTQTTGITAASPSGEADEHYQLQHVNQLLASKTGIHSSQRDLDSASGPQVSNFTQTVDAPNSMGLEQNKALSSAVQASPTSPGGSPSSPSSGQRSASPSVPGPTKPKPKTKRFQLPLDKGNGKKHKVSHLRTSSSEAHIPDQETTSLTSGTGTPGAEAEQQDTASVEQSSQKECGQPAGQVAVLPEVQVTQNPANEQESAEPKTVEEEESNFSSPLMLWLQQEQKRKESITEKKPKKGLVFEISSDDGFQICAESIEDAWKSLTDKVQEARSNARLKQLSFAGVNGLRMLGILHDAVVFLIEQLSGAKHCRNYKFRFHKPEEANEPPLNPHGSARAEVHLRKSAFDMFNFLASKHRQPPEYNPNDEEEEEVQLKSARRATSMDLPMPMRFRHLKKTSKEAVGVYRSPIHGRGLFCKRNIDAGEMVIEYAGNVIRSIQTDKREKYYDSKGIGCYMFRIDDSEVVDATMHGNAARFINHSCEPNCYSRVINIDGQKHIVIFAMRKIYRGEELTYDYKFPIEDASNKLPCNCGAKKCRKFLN
Chain of Fibroblast growth factor receptor 1 (P11362 22-822 limits assumed): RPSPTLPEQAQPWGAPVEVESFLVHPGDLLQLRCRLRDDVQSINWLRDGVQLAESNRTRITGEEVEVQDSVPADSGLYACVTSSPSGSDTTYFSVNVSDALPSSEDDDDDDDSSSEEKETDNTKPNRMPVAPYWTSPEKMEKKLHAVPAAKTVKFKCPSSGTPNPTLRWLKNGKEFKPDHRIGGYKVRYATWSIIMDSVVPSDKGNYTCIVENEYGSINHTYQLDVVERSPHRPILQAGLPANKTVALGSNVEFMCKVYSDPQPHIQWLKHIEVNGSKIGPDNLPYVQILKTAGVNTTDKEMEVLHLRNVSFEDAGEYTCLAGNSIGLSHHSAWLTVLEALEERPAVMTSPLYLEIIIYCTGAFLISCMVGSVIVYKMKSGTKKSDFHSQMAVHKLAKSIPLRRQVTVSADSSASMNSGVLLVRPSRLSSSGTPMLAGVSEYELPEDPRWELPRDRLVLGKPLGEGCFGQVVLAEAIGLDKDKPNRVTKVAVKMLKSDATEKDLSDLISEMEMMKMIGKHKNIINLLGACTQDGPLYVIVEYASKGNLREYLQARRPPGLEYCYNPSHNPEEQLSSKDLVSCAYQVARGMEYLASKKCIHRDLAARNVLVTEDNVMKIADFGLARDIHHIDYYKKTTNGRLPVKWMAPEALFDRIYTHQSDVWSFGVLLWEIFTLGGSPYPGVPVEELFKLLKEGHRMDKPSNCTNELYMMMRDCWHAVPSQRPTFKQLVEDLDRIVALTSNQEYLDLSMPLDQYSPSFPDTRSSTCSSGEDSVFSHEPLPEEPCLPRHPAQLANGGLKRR
Chain of Cyclin-dependent kinase 5 (Q00535 whole entry): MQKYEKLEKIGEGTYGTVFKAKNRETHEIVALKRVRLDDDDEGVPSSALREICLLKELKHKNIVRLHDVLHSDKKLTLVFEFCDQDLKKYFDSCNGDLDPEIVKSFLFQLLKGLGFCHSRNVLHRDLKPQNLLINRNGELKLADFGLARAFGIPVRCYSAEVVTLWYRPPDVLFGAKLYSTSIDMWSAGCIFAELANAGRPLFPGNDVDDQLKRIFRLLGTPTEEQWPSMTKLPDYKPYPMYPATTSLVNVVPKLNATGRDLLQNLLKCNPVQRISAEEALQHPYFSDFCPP

- % of control [1]: 47%
Compound: Cc1cc(-c2ccnc(Nc3cnn(C)c3)n2)ccc1CNC(=O)N1CC(OC(C)C)C1

Compound: CNC(=O)Nc1ccc(-c2nc(N3CC4CCC(C3)O4)c3cnn(C4CCC5(CC4)OCCO5)c3n2)cc1
- % of control [2]: 100%

- % of control [3]: 100%
- % of control [4]: 0.4%
Compound: CCN(CC)CCCCNc1ncc2cc(-c3cc(OC)cc(OC)c3)c(NC(=O)NC(C)(C)C)nc2n1

Compound: COCCN1CCC(c2cc(CN(C)C(=O)c3cccc(Oc4ccccc4)c3)ccn2)CC1
- % activity ([5]; at 1 µM): > 95%
- % activity ([5]; at 10 µM): > 90%

- % of control ([6]; at 1 µM): 71%
- % of control ([6]; at 5 µM): 90%
Compound: C=CC(=O)Nc1cccc(C(=O)Nc2ccc(Nc3cc(-c4[nH]c(SC)nc4C)ccn3)cc2)c1

Compound: COCC(=O)NC/C=C/c1ccc2ncnc(Nc3ccc(Oc4ccc(C)nc4)c(C)c3)c2c1 [CP-724714]
- % of control [7]: 97%
- IC50 [8]: > 10 µM

Compound: COc1cc(Nc2nc(C)cc(-c3cnn4nc(OC)ccc34)n2)cc(C(F)(F)F)c1
- % of control [9]: 100%

Compound: Cc1cc([C@@H](C)Nc2ccccc2C(=O)O)c2nc(N3CCOCC3)cc(=O)n2c1 [AZD-6482]
- % of control (Activated CDC42 kinase 1): 100%
